Experimental data reported in patent US9555009B2, “Ciprofloxacin loaded diethylaminoethyl cellulose nanoparticles” (priority 2014, dated 2017).

Conditions: XRD

average crystallite size / particle size by Scherrer's equation: 3.22 nm
SMILES: O=C(O)c1cn(C2CC2)c2cc(N3CCNCC3)c(F)cc2c1=O [pure ciprofloxacin, Ciprofloxacin]
